In ChEMBL document CHEMBL3244110, “Synthesis and biological evaluation of some 2-amino-4-aryl-3H-1,5-benzodiazepine analogues of clozapine” (J Med Chem, 1978):
The source made the active and inactive calls. No cut-off for these calls is given here.

Assays:
[1] = test system: Mus musculus; experiment: Antipsychotic activity in mouse assessed as protection against amphetamine-induced lethality at 5 mg/kg, ip treated 30 mins before amphetamine challenge; format: functional, organism-based; set-up: dose 5 mg/kg
[2] = test system: Mus musculus; experiment: Toxicity in mouse assessed as ptosis at 50 mg/kg, ip; format: organism-based; set-up: dose 50 mg/kg, route intraperitoneal; conditions: in vivo
[3] = test system: Mus musculus; experiment: Toxicity in mouse assessed as depression at 50 mg/kg, ip; format: organism-based; set-up: dose 50 mg/kg, route intraperitoneal; conditions: in vivo
[4] = test system: Mus musculus; experiment: Antipsychotic activity in mouse assessed as increase in brain dopamine turnover at 25 to 30 mg/kg, ip pretreated with 200 mg/kg, ip alpha-methyl-p-tyrosine tyrosine hydroxylase inhibitor; format: functional, organism-based
[5] = test system: Mus musculus; experiment: Antipsychotic activity in mouse assessed as protection against amphetamine-induced lethality at 50 mg/kg, ip treated 30 mins before amphetamine challenge; format: functional, organism-based; set-up: dose 50 mg/kg
[6] = test system: Rattus norvegicus; experiment: Antipsychotic activity in 0.2 mA footshock-induced conditioned stimulus rat assessed as decrease in avoidance response at 20 mg/kg, ip after 30 mins; format: functional, organism-based; set-up: dose 20 mg/kg
[7] = test system: Rattus norvegicus; experiment: Antipsychotic activity in 0.2 mA footshock-induced conditioned stimulus rat assessed as decrease in avoidance response at 5 mg/kg, ip after 30 mins; format: functional, organism-based; set-up: dose 5 mg/kg
[8] = biological target: Adenylate cyclase (Rattus norvegicus) (UniProt D4A3N4+P26770+Q04400+P26769+Q03343+P40146+Q8CFM9+P21932); experiment: Inhibition of dopamine-sensitive rat brain adenylyl cyclase activity assessed as cAMP level at 10^-4 M
[9] = test system: Mus musculus; experiment: Toxicity in mouse assessed as depression at 5 mg/kg, ip; format: organism-based; set-up: dose 5 mg/kg, route intraperitoneal; conditions: in vivo
[10] = test system: Mus musculus; experiment: Toxicity in mouse assessed as depression at 20 mg/kg, ip; format: organism-based; set-up: dose 20 mg/kg, route intraperitoneal; conditions: in vivo
[11] = biological target: Adenylate cyclase; experiment: Inhibition of dopamine-sensitive rat brain adenylyl cyclase activity assessed as cAMP level
[12] = test system: Mus musculus; experiment: Toxicity in mouse assessed as tremors at 50 mg/kg, ip; format: organism-based; set-up: dose 50 mg/kg, route intraperitoneal; conditions: in vivo

CN1CCN(C2=Nc3ccccc3N=C(c3ccccc3)C2)CC1
Activity [1]: inactive | Activity [2]: Toxic | Activity [3]: Toxic | Activity [4]: Active | Activity [5]: inactive | Activity [6]: inactive | Activity [7]: inactive | inhibition [8]: inactive

Cc1ccc(C2=CCN(C3=Nc4ccccc4N=C(c4ccccc4)C3)CC2)cc1
Activity [1]: inactive | Activity [4]: Active | Activity [5]: Active | Activity [6]: Active | Activity [9]: Toxic | Activity [7]: Active | inhibition [8]: 27% | Activity [10]: Toxic

O=C(CCCN1CCC(O)(c2ccc(Cl)cc2)CC1)c1ccc(F)cc1 [HALOPERIDOL]
Activity [1]: Active | Activity [4]: Active | IC50 [11]: 2.3 µM | Activity [5]: Active

Clc1ccc(C2=Nc3ccccc3N=C(N3CCC(c4ccccc4)CC3)C2)cc1
Activity [1]: inactive | Activity [2]: Toxic | Activity [3]: Toxic | Activity [4]: inactive | Activity [5]: inactive | Activity [6]: inactive | Activity [7]: inactive

Cc1cc2c(cc1C)N=C(N1CCN(C)CC1)CC(c1ccc(F)cc1)=N2
Activity [1]: inactive | Activity [5]: inactive | Activity [6]: inactive | Activity [7]: inactive

Cc1cc2c(cc1C)N=C(N1CCC(c3ccccc3)CC1)CC(c1ccccc1)=N2
Activity [1]: inactive | Activity [4]: inactive | Activity [5]: inactive | Activity [6]: inactive | Activity [7]: inactive | inhibition [8]: inactive

c1ccc(C2=Nc3ccccc3N=C(N3CCCCC3)C2)cc1
Activity [1]: inactive | Activity [4]: inactive | Activity [5]: inactive | Activity [6]: inactive | Activity [7]: inactive

c1ccc(C2=Nc3ccccc3N=C(N3CCC(C(c4ccccc4)c4ccccc4)CC3)C2)cc1
Activity [1]: inactive | Activity [2]: Toxic | Activity [4]: inactive | Activity [5]: Active | Activity [6]: inactive | Activity [7]: inactive

Clc1ccc2c(c1)N=C(N1CCC(c3ccccc3)CC1)CC(c1ccccc1)=N2
Activity [1]: inactive | Activity [2]: Toxic | Activity [4]: inactive | Activity [5]: inactive | Activity [6]: inactive | Activity [7]: inactive | inhibition [8]: inactive

Butaclamol
Activity [1]: Active | Activity [5]: Active

c1ccc(C2=Nc3ccccc3N=C(N3CCOCC3)C2)cc1
Activity [1]: inactive | Activity [4]: inactive | Activity [5]: inactive | Activity [6]: inactive | Activity [7]: inactive

c1ccc(C2=Nc3ccccc3N=C(N3CCC(c4ccccc4)CC3)C2)cc1
Activity [1]: Active | Activity [2]: Toxic | Activity [4]: Active | IC50 [11]: 4.5 ×10⁻⁵ M | Activity [5]: Active | Activity [6]: inactive | Activity [7]: inactive

Clc1ccc(C2=CCN(C3=Nc4ccccc4N=C(c4ccccc4)C3)CC2)cc1
Activity [1]: inactive | Activity [2]: Toxic | Activity [3]: Toxic | Activity [4]: Active | Activity [5]: inactive | Activity [6]: inactive | Activity [7]: inactive | inhibition [8]: inactive

Cc1ccc(C2=Nc3ccccc3N=C(N3CCN(C)CC3)C2)cc1
Activity [1]: inactive | Activity [5]: inactive | Activity [6]: inactive | Activity [7]: inactive

COc1ccc(C2CCN(C3=Nc4ccccc4N=C(c4ccccc4)C3)CC2)cc1
Activity [1]: inactive | Activity [4]: inactive | Activity [5]: inactive | Activity [6]: inactive | Activity [7]: inactive | inhibition [8]: inactive

OCCN1CCN(CCCN2c3ccccc3Sc3ccc(C(F)(F)F)cc32)CC1
Activity [1]: Active | Activity [5]: Active

CN1CCN(C2=Nc3ccccc3N=C(c3ccc(Cl)cc3)C2)CC1
Activity [1]: inactive | Activity [4]: inactive | Activity [5]: inactive | Activity [6]: inactive | Activity [7]: inactive

c1ccc(CC2CCN(C3=Nc4ccccc4N=C(c4ccccc4)C3)CC2)cc1
Activity [1]: Active | Activity [2]: Toxic | Activity [4]: inactive | Activity [5]: Active | Activity [6]: inactive | Activity [7]: inactive

Cc1ccc(C2=Nc3ccccc3N=C(N3CCC(c4ccccc4)CC3)C2)cc1
Activity [1]: inactive | Activity [4]: inactive | Activity [5]: inactive | Activity [6]: inactive | Activity [7]: inactive

FC(F)(F)c1ccc(C2CCN(C3=Nc4ccccc4N=C(c4ccccc4)C3)CC2)cc1
Activity [1]: Active | Activity [3]: Toxic | Activity [4]: inactive | Activity [5]: inactive | Activity [6]: inactive | Activity [7]: inactive | inhibition [8]: inactive

CN(CCO)C1=Nc2ccccc2N=C(c2ccccc2)C1
Activity [1]: inactive | Activity [4]: inactive | Activity [5]: inactive | Activity [6]: inactive | Activity [7]: inactive

Cc1cc2c(cc1C)N=C(N1CCN(C)CC1)CC(c1ccccc1)=N2
Activity [1]: inactive | Activity [4]: Active | Activity [5]: inactive | Activity [6]: Active | Activity [7]: inactive | inhibition [8]: inactive | Activity [12]: Toxic | Activity [10]: Toxic

CN1CCN(C2=Nc3cc(Cl)ccc3Nc3ccccc32)CC1 [CLOZAPINE]
Activity [1]: Active | Activity [4]: Active | IC50 [11]: 1.4 ×10⁻⁷ M | Activity [5]: Active | Activity [6]: Active | Activity [7]: Active

CN(C)C1=Nc2ccccc2N=C(c2ccccc2)C1
Activity [1]: inactive | Activity [2]: Toxic | Activity [4]: inactive | Activity [5]: inactive | Activity [6]: inactive | Activity [7]: inactive

FC(F)(F)c1cccc(C2CCN(C3=Nc4ccccc4N=C(c4ccccc4)C3)CC2)c1
Activity [1]: inactive | Activity [2]: Toxic | Activity [4]: inactive | Activity [5]: inactive | Activity [6]: inactive | Activity [7]: inactive | inhibition [8]: inactive

C1=C(c2ccccc2)CCN(C2=Nc3ccccc3N=C(c3ccccc3)C2)C1
Activity [1]: inactive | Activity [4]: inactive | Activity [5]: inactive | Activity [6]: inactive | Activity [7]: inactive | inhibition [8]: inactive

CSc1ccc2c(c1)N(CCC1CCCCN1C)c1ccccc1S2 (stereo unspecified)
Activity [4]: Active

COc1ccc(C2=Nc3ccccc3N=C(N3CCN(C)CC3)C2)cc1
Activity [1]: inactive | Activity [5]: inactive | Activity [6]: inactive | Activity [7]: inactive

Fc1ccc(C2=Nc3ccccc3N=C(N3CCC(c4ccccc4)CC3)C2)cc1
Activity [1]: Active | Activity [4]: inactive | Activity [5]: Active | Activity [6]: inactive | Activity [9]: Toxic | Activity [7]: Active | inhibition [8]: inactive

c1ccc(C2=Nc3ccccc3N=C(N3CCN(c4ccccc4)CC3)C2)cc1
Activity [1]: inactive | Activity [4]: inactive | Activity [5]: inactive | Activity [6]: inactive | Activity [7]: inactive

CN1CCN(C2=Nc3cc(Cl)ccc3N=C(c3ccccc3)C2)CC1
Activity [1]: Active | Activity [4]: inactive | Activity [5]: inactive | Activity [6]: inactive | Activity [7]: inactive

COc1ccc(C2=Nc3ccccc3N=C(N3CCC(c4ccccc4)CC3)C2)cc1
Activity [1]: inactive | Activity [4]: inactive | Activity [5]: inactive | Activity [6]: inactive | Activity [7]: inactive

CN1CCN(C2=Nc3ccccc3N=C(c3ccc(F)cc3)C2)CC1
Activity [1]: inactive | Activity [2]: Toxic | Activity [3]: Toxic | Activity [4]: Active | Activity [5]: inactive | Activity [6]: Active | Activity [7]: inactive | inhibition [8]: 46% | Activity [10]: Toxic

CN(C)CCCN1c2ccccc2Sc2ccc(Cl)cc21
Activity [1]: Active | Activity [4]: Active | Activity [5]: Active

c1ccc(C2=Nc3ccccc3N=C(N3CCC(N4CCCCC4)CC3)C2)cc1
Activity [1]: inactive | Activity [4]: Active | Activity [5]: inactive | Activity [6]: inactive | Activity [7]: inactive | inhibition [8]: inactive

FC(F)(F)c1ccc(C2=CCN(C3=Nc4ccccc4N=C(c4ccccc4)C3)CC2)cc1
Activity [1]: inactive | Activity [4]: inactive | Activity [5]: inactive | Activity [6]: inactive | Activity [7]: inactive | inhibition [8]: inactive

c1ccc(C2=Nc3ccccc3N=C(N3CCCC3)C2)cc1
Activity [1]: inactive | Activity [4]: inactive | Activity [5]: inactive | Activity [6]: inactive | Activity [7]: inactive
